Read-outs that look alike come from different tables or passages of the source. Each block holds one molecule with its values, some of them ahead of it.
Columns and labels:
PRMT5 enzyme = PRMT5 enzyme (Homo sapiens (Human), UniProt O14744); assay: PRMT5 enzyme inhibitory activity assay (LANCE Ultra TR-FRET); assay type: biochemical
Protocol: Experimental objective: To test the inhibitory effect of compounds on PRMT5 enzyme activity
Experimental materials: PRMT5 enzyme
The plate was incubated at 25° C. for 30 min, then added with substrate, and reacted at 25° C. for 90 min. After 90 min, the detection reagent was added to the 384-well plate using PerkinElmer LANCE Ultra TR-FRET standard method to combine with the enzyme-substrate reaction product. […] Raw data were used to calculate the inhibition rate of the test compounds using the following equation: […]
(§1) The inhibition rates were imported into Excel separately to calculate the inhibition rates of compounds at different concentrations, and then XLfit software was used to plot inhibition curves and calculate relevant parameters, including minimum inhibition rate, maximum inhibition rate and IC50.

[1] = test system: Z-138 non-Hodgkin's lymphoma cells; assay: In vitro anti-proliferation assay of Z-138 cells (CellTiter-Glo, 6 days); assay type: cell-based, human; conditions: read-out: IC50 (nM), in vitro anti-proliferative activity on Z-138 tumor cells
Protocol: The plate was incubated at 37° C., CO2 and 100% relative humidity for 6 days. Samples were processed using Promega CellTiter-Glo Luminescent Cell Viability Assay Kit (Promega-G7571) standard method, and the luminescent signal was detected on a TECAN Spark®10M plate reader. Raw data were used to calculate the inhibition rate of the test compounds using the following equation: […]
as §1

[2] = test system: MDA-MB-468 human breast cancer cells; assay: Anti-proliferative activity on MDA-MB-468 cells (CellTiter-Glo, 7 days); assay type: cell-based; conditions: read-out: IC50 (nM), in vitro anti-proliferative activity on MDA-MB-468 tumor cells
Protocol: CellTiter-Glo (chemiluminescent cell viability detection reagent, purchased from Promega).
MDA-MB-468 cells were planted in a white 384-well plate with 40 μL of cell suspension per well, which contained 1000 MDA-MB-468 cells. The cell plate was cultured in a CO2 incubator overnight. […] 78 μL of culture medium was added to a middle plate, and then 2 μL of gradient diluted compound per well was transferred to the middle plate according to the corresponding position. After being thoroughly mixed, 10 μL per well was transferred to the cell plate. […] The cell plate was cultured in a CO2 incubator for 7 days. Another cell plate was prepared, and the signal value was read on the day of administration as the maximum value (Max value in the equation below) to participate in data analysis. 10 μL of chemiluminescent cell viability detection reagent per well was added to the cell plate, and the plate was incubated at room temperature for 10 min to stabilize the luminescent signal. A multi-label analyzer was used for reading. After the incubation of the cell plate with the compound was completed, 10 μL of chemiluminescent cell viability detection reagent per well was added to the cell plate, and the plate was incubated at room temperature for 10 min to stabilize the luminescent signal. A multi-label analyzer was used for reading.

[3] = Pharmacokinetic evaluation in CD-1 mice; conditions: CD-1 mice
Protocol: Experimental objective: To study the pharmacokinetic parameters of the compounds in CD-1 mice
Animal experimental design: Male CD-1 mice (28.08 to 29.01 g, 6 to 7 weeks old), purchased from Shanghai Family Planning Research Institute, n=2/group, 4 mice in total; blood collection time points (h): 0.083 (intravenous injection only), 0.25 (intragastric administration only), 0.5, 1, 2, 4, 8, 10 and 24; compound dose by tail vein injection: 1 mg/kg; single dose by intragastric administration: 5 mg/kg; intravenous and intragastric administration vehicles: 20% N,N-dimethylacetamide aqueous solution, 20% hydroxypropyl-β-cyclodextrin aqueous solution, 5% DMSO/50% PEG400/45% water for injection or 10% Solutol/30% PEG400/60% water for injection. All animals had free access to water during the experiment, fasted overnight before administration, and resumed food supply 4 hours after administration. The entire animal experiment complied with the Institutional Animal Care and Use Committee (IACUC) animal welfare.
Sample collection and storage: After administration, approximately 0.03 mL of blood was collected from the saphenous vein of the mouse at each time point into a pre-frozen commercial EDTA-K2 tube, and placed on wet ice until centrifugation. Blood samples were centrifuged at 4° C., 3,200 g for 10 min. Plasma was collected separately, transferred to a pre-labeled 96-well plate, fast frozen on dry ice, and stored at −70±10° C. until LC-MS/MS analysis.
Pre-treatment of plasma samples: 3 μL of unknown, standard curve, QC, diluted QC and single and double blank samples were taken and placed in 1.5 mL tubes, and 60 μL of internal standard solution (internal standard: Labetalol 100 ng/mL acetonitrile solution, double blank with the same volume of pure acetonitrile) was added. The samples were vortexed for at least 15 seconds, and centrifuged at 4° C., 12,000 g for 15 min. 50 μL of the supernatant was taken and placed on a clean 96-well plate, and 200 μL of 70% acetonitrile was added. The plate was vortex at 800 rpm for 10 min, and centrifuged at 4° C., 3,220 g for 5 min. 2.0 μL of the supernatant was taken for LC-MS/MS analysis. 10-fold sample dilution procedure: 2 μL of the sample was added to 18 μL of blank matrix; 2-fold sample dilution procedure: 2 μL of the sample was added to 2 μL of blank matrix. Plasma was processed in the same manner as undiluted samples. The linear range was 4.00 to 6000 nM. Plasma concentrations would be analyzed with Triple Quad 6500 Plus, and pharmacokinetic parameters would be calculated with Phoenix WinNonlin 6.3.

[4] = test system: human mantle cell lymphoma Z-138 cells; conditions: Z-138 xenograft; for T/C (%) (Day 21) / TGI (%) (Day 21): 80 mg/kg PO BID × 21, Day 21; for RTV (Day 21) / Tumor volume (Day 21): 80 mg/kg PO BID × 21, Day 21, Mean ± SEM; for Tumor volume (Day 21) / Tumor volume (Day 0): n = 6; for Tumor volume (Day 0): Day 0 (at grouping), Mean ± SEM
[5] = test system: human breast cancer MDA-MB-468 cells; assay: Subcutaneous xenograft tumor BALB/c mouse model of human breast cancer MDA-MB-468 cells; assay type: in vivo; conditions: MDA-MB-468 xenograft
Protocol: Experimental materials: 6 to 8 weeks old Balb/c female mice
Routine digestion with trypsin-EDTA was performed twice a week for passaging.
Group administration was started when the average tumor volume reached 130 mm^3.

[6] = Hygroscopicity by dynamic vapor sorption (DVS); assay type: physicochemical; conditions: 25° C./80% RH
Protocol: (3) Dynamic Vapor Sorption (DVS) Method
Detailed DVS instrument information and parameters are shown in Table 5, and the classification of hygroscopicity evaluation is shown in Table 6:
Instrument: SMS DVS intrinsic Dynamic Vapor Sorption. The crystal form A of compound 46a (about 10 mg) was taken and placed in a DVS sample tray for testing.

[7] = injection administration (1 mg/kg)
[8] = 100 mg/kg PO BID × 4 W, Day 28, Mean ± SEM

Chain of PRMT5 enzyme (O14744 whole entry): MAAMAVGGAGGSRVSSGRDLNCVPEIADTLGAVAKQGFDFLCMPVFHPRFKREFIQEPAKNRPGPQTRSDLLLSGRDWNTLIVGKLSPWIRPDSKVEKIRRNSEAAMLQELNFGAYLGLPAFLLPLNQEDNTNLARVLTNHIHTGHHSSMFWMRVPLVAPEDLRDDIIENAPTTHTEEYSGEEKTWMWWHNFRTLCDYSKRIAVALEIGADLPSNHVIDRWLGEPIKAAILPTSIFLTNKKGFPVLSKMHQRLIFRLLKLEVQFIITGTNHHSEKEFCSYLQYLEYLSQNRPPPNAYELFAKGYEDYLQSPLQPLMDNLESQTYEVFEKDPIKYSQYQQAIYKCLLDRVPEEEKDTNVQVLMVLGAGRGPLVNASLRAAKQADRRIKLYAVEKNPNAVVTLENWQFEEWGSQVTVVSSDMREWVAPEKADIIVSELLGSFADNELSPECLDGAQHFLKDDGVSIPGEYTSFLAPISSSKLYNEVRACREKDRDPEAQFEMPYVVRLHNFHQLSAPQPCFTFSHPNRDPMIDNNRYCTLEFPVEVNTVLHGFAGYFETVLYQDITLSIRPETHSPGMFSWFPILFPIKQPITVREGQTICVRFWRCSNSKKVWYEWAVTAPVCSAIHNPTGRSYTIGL
Chain of PRMT5 enzyme (Q9BQA1 whole entry partner): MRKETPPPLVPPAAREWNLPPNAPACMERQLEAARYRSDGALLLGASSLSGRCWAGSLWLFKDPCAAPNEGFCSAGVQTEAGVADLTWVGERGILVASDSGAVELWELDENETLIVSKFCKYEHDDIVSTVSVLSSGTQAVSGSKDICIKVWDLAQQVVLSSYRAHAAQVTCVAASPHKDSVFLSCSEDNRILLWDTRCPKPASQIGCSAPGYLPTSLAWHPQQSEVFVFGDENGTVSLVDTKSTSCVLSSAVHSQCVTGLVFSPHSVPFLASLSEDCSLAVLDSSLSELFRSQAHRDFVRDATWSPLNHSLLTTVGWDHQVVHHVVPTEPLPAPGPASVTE

SMILES: O=C(NC[C@H](O)CN1CCc2ccccc2C1)c1cnc2c(c1)NC(=O)C1(CC1)C2 [Compound 39]
IC50 (PRMT5 enzyme): 34 nM
IC50 [1]: 12 nM
IC50 [2]: 12 nM
Clearance rate CL [3, 7]: 33.6 mL/min/kg
Concentration integral AUC [3, 7]: 1214 nM·h
Half-life T1/2 [3, 7]: 33 min
Bioavailability F ([3]; oral administration (5 mg/kg)): 20.0%
Concentration integral AUC ([3]; oral administration (5 mg/kg)): 1208 nM·h
T/C (%) (Day 21) [4]: 12.1%
TGI (%) (Day 21) [4]: 94.8%
RTV (Day 21) [4]: 1.66 + 0.42
Tumor volume (Day 21) [4]: 179 + 42 mm^3
Tumor volume (Day 0) [4]: 108 ± 7 mm^3

IC50 (PRMT5 enzyme): 58 nM
IC50 ([1]; Homo sapiens, Z-138, 144 h): 11 nM
IC50 ([2]; Homo sapiens, 168 h): 5 nM
SMILES: C[C@H](NC(=O)c1cnc2c(c1)NC(=O)C1(CC1)O2)[C@H](O)CN1CCc2ccccc2C1 [Compound 46a]
T/C (%) ([5]; 100 mg/kg PO BID × 4 W, Day 28): 33.29%
TGI (%) ([5]; 100 mg/kg PO BID × 4 W, Day 28): 107.01%
RTV (Day 28) [5, 8]: 0.88 ± 0.06
Tumor volume (Day 28) [5, 8]: 115 ± 13.8 mm^3
Tumor volume (Day 0) ([5]; Day 0 (at grouping), Mean ± SEM): 130 ± 10.5 mm^3
T/C (%) (Day 21) [4]: 1.7%
TGI (%) (Day 21) [4]: 105.8%
RTV (Day 21) [4]: 0.24 + 0.11
Tumor volume (Day 21) [4]: 27 + 13 mm^3
Tumor volume (Day 0) [4]: 107 ± 8 mm^3

Hygroscopicity classification [6]: slightly hygroscopic
moisture absorption weight gain ΔW % [6]: 0.8%
SMILES: C[C@H](NC(=O)c1cnc2c(c1)NC(=O)C1(CC1)O2)[C@H](O)CN1CCc2ccccc2C1 [crystal form A of compound 46a]
